According to patent publication US10874743B2, “IRAK degraders and uses thereof” (Kymera Therapeutics, Inc., priority 2017, dated 2020):

Experiments:
IRAK4 [1] = molecular target: T1, IRAK4 (Homo sapiens, UniProt Q9NWZ3); test: PBMC degradation assay (western blot, % IRAK4 degraded after 4 hours); format: cell-based; details: human PBMCs
T1 sequence (Q9NWZ3 1-460): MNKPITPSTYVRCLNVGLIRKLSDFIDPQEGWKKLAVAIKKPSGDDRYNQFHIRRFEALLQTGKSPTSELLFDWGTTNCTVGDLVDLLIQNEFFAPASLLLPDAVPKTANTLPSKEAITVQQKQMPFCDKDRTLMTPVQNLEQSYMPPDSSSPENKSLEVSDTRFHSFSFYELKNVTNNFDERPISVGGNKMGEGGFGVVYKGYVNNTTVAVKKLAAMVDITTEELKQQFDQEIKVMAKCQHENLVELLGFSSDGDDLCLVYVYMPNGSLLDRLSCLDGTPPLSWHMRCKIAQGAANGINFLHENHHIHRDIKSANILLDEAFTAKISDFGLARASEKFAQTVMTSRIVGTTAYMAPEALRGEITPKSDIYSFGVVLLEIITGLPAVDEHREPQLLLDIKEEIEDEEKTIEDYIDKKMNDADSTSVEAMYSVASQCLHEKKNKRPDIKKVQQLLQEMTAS
Description: Protocol summary of PBMC degradation studies from compound treatment through quantitation.
PBMC culture medium: Human peripheral blood mononuclear cells (PBMCs): RPMI+10% FBS (Heat-inactivated)+1% P/S.
Cells were cultured at a minimum of 2.5×10^6 c/mL. • PBMCs were incubated @ 37° C./5% CO2 and allowed to rest overnight. • Following overnight recovery, a cell count/viability assessment by trypan blue exclusion was performed. Cells densities were adjusted back to 2.5×10^6 c/mL (proceed with plating only if viability >80%). • In a 6 well plate, 2.0 mL of cells were added to each well for a minimum of 5×10^6 CT per treatment condition. Compounds dilutions were prepared from 20 mM stock and were added at a final 1000× dilution (0.1% DMSO concentration). • At the end of treatment, cells were harvested and spun @ 1800 rpm for 5 min. 1×PBS wash and spun again @ 1800 rpm for 5 min. Cell pellets were frozen and stored at −80° C. until further processing. • Lysates were generated by resuspending in lysis buffer. Protein quantification was performed with a BCA kit. • 20 μg of protein were loaded per lane and run on a 26-well 4-12% Bis-Tris SDS-page gel. • Transfers were performed on PVDF membranes using the BioRad Mixed MW turbo program for 7 min. • Membranes were blocked for one hour on a rocker at room temperature. • Primary antibodies were incubated overnight at 4° C. on a rocker. • Membranes were washed 3×TBST, 5 min each. • Secondaries were added and incubated for one hour on a rocker at room temperature. • Membranes were washed 3×TBST, 5 min each and rinsed well with deionized H2O. Membranes were scanned using the Licor Odessey CLx and bands were quantified using Image Studio Lite Version 5.2 software.
PBMC results at 4 hours. The letter codes indicate the percentage of IRAK4 degraded after 4 hours: A (>50% degradation), B (>20-50% degradation) and C (<20% degradation)

IRAK4 [2] = molecular target: T1, IRAK4; test: THP-1 degradation assay (western blot, % IRAK4 degraded after 24 hours); format: cell-based; parameters: endogenous in cells; details: THP-1 cells
Description: Compounds were reconstituted in DMSO to make stock solutions at concentration of 60 mM. THP-1 and OCI-LY10 cells were maintained in RPMI-1640 medium containing 10% FBS, 0.5 μM 2-ME or 20% FBS, 55 μM 2-ME, and 1% L-Glutamine respectively.
Cells were seeded into 6-well plates with 5e6 cells per well. 200 μL of diluted compounds were added to cells to the final concentration of 0.003-10 μM. After 4 or 24 hour-incubation at 37° C., cells were collected into 2 mL Eppendorf tubes and centrifuged at 1,000 rpm for 5 min. The cell pellets were washed with 1×DPBS once and resuspended in 60 μL lysis buffer. The cells were lysed on ice for 10 min, then centrifuged at 14,000 rpm for 10 min at 4° C. and the supernatants were collected for western blots. For THP-1 cells, the lysis buffer contained 40 mM pH 7.4 HEPES, 140 mM NaCl, 2.5 mM EDTA, 1% NP-40, 0.1% SDS, and protease inhibitor cocktail (Roche, Cat. No. 05892791001). For OCI-LY10 cells, RIPAbuffer (Thermo Fisher, 89900) with Halt Protease and Phosphatase Inhibitor Cocktail (Thermo Fisher, 78446) was applied.
The protein concentration of cell lysates was quantified with Pierce™ BCA Protein Assay Kit (Pierce, 23227). Albumin standards at different concentrations were prepared, involving 2,000 ug/mL, 1,500 ug/mL, 1,000 ug/mL, 750 ug/mL, 500 ug/mL, 250 ug/mL, 125 ug/mL, and 25 ug/mL. BCA working reagents were prepared by mixing BCA reagent A with reagent B in 50:1 ratio. 200 μL of the BCA working reagents were added to 25 μL of BCA standard or cell lysates in microplate, and mixed thoroughly on a plate shaker for 30 seconds. After incubation at 37° C. for 30 min, the absorbance of samples at 562 nm were measured with EnVision Plate Reader.
Protein lysates were prepared in NuPAGE™ LDS sample buffer and NuPAGE™ sample reducing agent, and incubated at 95° C. for 5 min. For western blots, 20-25 μg of total proteins were resolved in 4-12% Bis-Tris gels (Introgen, WG1403A) or 10% Bis-Tris Midi gels (Invitrogen, WG1202BOX) running with 1×MOPS SDS running buffer (Invitrogen, NP0001) or 1×MES SDS running buffer (Invitrogen, NP0002). The proteins were transferred to low fluorescence PVDF membranes using the Trans-Blot Turbo Transfer System. Membranes were then blocked in Odyssey blocking buffer at RT for 1 h followed by primary incubation at 4° C. overnight. The primary antibodies were IRAK1 rabbit monoclonal antibody (CST, #4504S, 1:500), IRAK3 rabbit polyclonal antibody (CST, #4369, 1:500), IRAK4 rabbit polyclonal antibody (CST, #4363S, 1:1,000), MyD88 rabbit monoclonal antibody (Abcam, Ab133739, 1:2,000), j3-actin mouse monoclonal antibody (Sigma, A5441, 10,000), and Gapdh mouse monoclonal antibody (Millipore, MAB374, 1:5,000). Membranes were washed three times with 1×TBST, and then incubated with IR Dye 800 CW Goat anti-rabbit (Licor, #926-32211) and IR Dye 700 CW Goat anti-mouse (Licor, #926-68070) secondary antibodies in 1:10,000 dilution at RT for 1 h. The western blot images were obtained using Odyssey Imaging System.
THP-1 results at 24 hours. The letter codes indicate the percentage of IRAK4 degraded after 24 hours: A (>50% degradation), B (>20-50% degradation) and C (<20% degradation)

SMILES	PBMC % IRAK4 Degradation (IRAK4 [1])	THP-1 24 h % IRAK4 Degradation (IRAK4 [2])
NC(=O)c1nn(-c2ccc(C(=O)NCCOCCOCCOCCOCCNc3cccc4c3C(=O)N(C3CCC(=O)NC3=O)C4=O)cc2)cc1NC(=O)c1coc(-c2ccnc(NCC(F)(F)F)c2)n1 (centres unmarked) [I-53]	A (>50% degradation)	–
NC(=O)c1nn(-c2ccc(C(=O)NCCCCCCCCCCCNC(=O)COc3cccc4c3C(=O)N(C3CCC(=O)NC3=O)C4=O)cc2)cc1NC(=O)c1coc(-c2ccnc(NCC(F)(F)F)c2)n1 (centres unmarked) [I-104]	C (<20% degradation)	–
NC(=O)c1nn(-c2ccc(C(=O)NCCCCCNC(=O)COc3cccc4c3C(=O)N(C3CCC(=O)NC3=O)C4=O)cc2)cc1NC(=O)c1coc(-c2ccnc(NCC(F)(F)F)c2)n1 (centres unmarked) [I-106, N-[3-carbamoyl-1-[4-[5-[[2-[2-(2,6-dioxo-3-piperidyl)-1,3-dioxo-isoindolin-4-yl]oxyacetyl]amino]pentylcarbamoyl]phenyl]pyrazol-4-yl]-2-[2-(2,2,2-trifluoroethylamino)-4-pyridyl]oxazole-4-carboxamide]	A (>50% degradation)	–
Cc1ncsc1-c1ccc(CNC(=O)C2C[C@@H](O)CN2C(=O)[C@@H](NC(=O)COCCOCCOC(C)C(F)CNC(=O)c2cnc(-n3ncc4cc(C#N)cnc43)cc2NC2CC2)C(C)(C)C)cc1 (some centres unmarked) [I-122]	–	C (<20% degradation)
COc1cc(Nc2nc(N[C@H]3CCCC[C@H]3N)n3ccnc3c2C(N)=O)cc(OCCOCCOCCOCC(=O)N[C@H](C(=O)N2C[C@H](O)C[C@H]2C(=O)NCc2ccc(-c3scnc3C)cc2)C(C)(C)C)c1 [I-162, 5-[[(1S,2R)-2-aminocyclohexyl]amino]-7-[3-[2-[2-[2-[2-[[(1S)-1-[(2S,4R)-4-hydroxy-2-[[4-(4-methylthiazol-5-yl)phenyl]methylcarbamoyl]pyrrolidine-1-carbonyl]-2,2-dimethyl-propyl]amino]-2-oxo-ethoxy]ethoxy]ethoxy]ethoxy]-5-methoxy-anilino]imidazo[1,2-c]pyrimidine-8-carboxamide]	–	A (>50% degradation)
COc1cc(Nc2nc(N[C@H]3CCCC[C@H]3N)n3ccnc3c2C(N)=O)cc(OCCOCCOCCOCCOCCOCC(=O)N[C@H](C(=O)N2C[C@H](O)C[C@H]2C(=O)NCc2ccc(-c3scnc3C)cc2)C(C)(C)C)c1 [I-163]	–	C (<20% degradation)
COc1cc(Nc2nc(N[C@H]3CCCC[C@H]3N)n3ccnc3c2C(N)=O)cc(OC)c1OCCOCCOCCOCCOCC(=O)N[C@H](C(=O)N1C[C@H](O)C[C@H]1C(=O)NCc1ccc(-c2scnc2C)cc1)C(C)(C)C [I-164]	–	C (<20% degradation)
COc1cc(Nc2nc(N[C@H]3CCCC[C@H]3N)n3ccnc3c2C(N)=O)cc(OC)c1OCCOCCOCCOCC(=O)N[C@H](C(=O)N1C[C@H](O)C[C@H]1C(=O)NCc1ccc(-c2scnc2C)cc1)C(C)(C)C [I-165]	–	C (<20% degradation)

Now from value to compound:

PBMC % IRAK4 Degradation (IRAK4 [1])	THP-1 24 h % IRAK4 Degradation (IRAK4 [2])	SMILES
–	C (<20% degradation)	Cc1ncsc1-c1ccc(CNC(=O)[C@@H]2C[C@@H](O)CN2C(=O)[C@@H](NC(=O)COCCOCCn2ccc3c(Nc4nc(N[C@@H]5CCCC[C@@H]5N)cc5[nH]cnc(=O)c45)cccc32)C(C)(C)C)cc1 [I-189, (2S,4R)-1-[(2S)-2-[[2-[2-[2-[4-[[7-[[(1R,2S)-2-aminocyclohexyl]amino]-4-oxo-3H-pyrido[4,3-d]pyrimidin-5-yl]amino]indol-1-yl]ethoxy]ethoxy]acetyl]amino]-3,3-dimethyl-butanoyl]-4-hydroxy-N-[[4-(4-methylthiazol-5-yl)phenyl]methyl]pyrrolidine-2-carboxamide]
–	C (<20% degradation)	NC(=O)c1nnc(N[C@@H]2CCCC[C@@H]2N)nc1Nc1cccc2c1ccn2CCOCCOCCOCCOCCNc1cccc2c1C(=O)N(C1CCC(=O)NC1=O)C2=O (stereo partly drawn) [I-194, 3-[[(1R,2S)-2-aminocyclohexyl]amino]-5-[[1-[2-[2-[2-[2-[2-[[2-(2,6-dioxo-3-piperidyl)-1,3-dioxo-isoindolin-4-yl]amino]ethoxy]ethoxy]ethoxy]ethoxy]ethyl]indol-4-yl]amino]-1,2,4-triazine-6-carboxamide]
–	C (<20% degradation)	Cc1ncsc1-c1ccc(CNC(=O)[C@@H]2C[C@@H](O)CN2C(=O)[C@@H](NC(=O)COCCOCCOCCOCCNC(=O)Cn2ccc3c(Nc4nc(N[C@@H]5CCCC[C@@H]5N)cc5[nH]cnc(=O)c45)cccc32)C(C)(C)C)cc1 [I-195, (2S,4R)-1-[(2S)-2-[2-[2-[2-[2-[2-[[2-[4-[[7-[[(1R,2S)-2-Aminocyclohexylamino]-4-oxo-3H-pyrido[4,3-d]pyrimidin-5-yl]amino]indol-1-yl]acetyl]amino]ethoxy]ethoxy]ethoxy]ethoxy]acetyl]amino]-3,3-dimethyl-butanoyl]-4-hydroxy-N-[[4-(4-methylthiazol-5-yl)phenyl]methyl]pyrrolidine-2-carboxamide]
–	C (<20% degradation)	COc1cc(Nc2nc(N[C@H]3CCCC[C@H]3N)n3ccnc3c2C(N)=O)cc(OCCOCCOCCOCCOCCNc2cccc3c2C(=O)N(C2CCC(=O)NC2=O)C3=O)c1 (some centres unmarked) [I-199]
–	C (<20% degradation)	COc1cc(Nc2nc(N[C@H]3CCCC[C@H]3N)n3ccnc3c2C(N)=O)cc(OC)c1OCCOCCOCCOCCNc1cccc2c1C(=O)N(C1CCC(=O)NC1=O)C2=O (stereo partly drawn) [I-200, 5-(((1S,2R)-2-aminocyclohexyl)amino)-7-((4-(2-(2-(2-(2-((2-(2,6-dioxopiperidin-3-yl)-1,3-dioxoisoindolin-4-yl)amino)ethoxy)ethoxy)ethoxy)ethoxy)-3,5-dimethoxyphenyl)amino)imidazo[1,2-c]pyrimidine-8-carboxamide]
–	B (>20-50% degradation)	COc1cc2c(cc1OCCOCCOCCOCCOCCOCC(=O)N[C@H](C(=O)N1C[C@H](O)C[C@H]1C(=O)NCc1ccc(-c3scnc3C)cc1)C(C)(C)C)ncc1c3ccc(C#N)cc3[nH]c21 [I-203]
